Reference: patent US20250381133A1, “ARTICLE IN THE FORM OF EDIBLE SHEET” (TECOZYME INC, priority 2020, published 2025)

Test system: mouse tongue
Test: In vivo biostability / mucoadhesiveness on mouse tongue
Design: species or system ICR mice
Details: after 60 minutes, high salivary flow; FIG. 19
Experimental: Eight-week-old ICR mice were anesthetized with 100mg/kg of ketamine and 16.7 mg/kg of xylazine cocktail. 10 mg of the oral patch was applied to the tongue. 0.2 mg/kg of Pilocarpine was administered intraperitoneally to stimulate salivation. Tongue tissues were harvested at 30 and 60 minutes post-injection for SEM and fluorescence imaging.

## unencapsulated FITC-BSA: FITC-labeled bovine serum albumin, not loaded in a patch
  retention of FITC-BSA on the tongue surface: completely washed away
